{"source": "patent US20210204574A1", "about": "“Consumable Product Comprising Malted Wheat” (Lantmannen Functional Foods AB, priority 2018, published 2021)"}
{"tested_on": "cholera toxin-induced secretion", "assay": "not given", "design": "species or system Sprague-Dawley rats", "settings": "rat, in vivo"}
{"compound": "COc1ccc([C@@H]2OC[C@@H]3[C@H]2CO[C@H]3c2ccc(OC)c(OC)c2)cc1OC", "note": "[Eudesmine]", "Inhibition, %": "16%", "antisecretory activity of pure phenols (in words)": "increased secretion"}
{"compound": "OCc1ccccc1O[C@@H]1O[C@H](CO)[C@@H](O)[C@H](O)[C@H]1O", "note": "[Salicin]", "AF units": "0.3 ± 0.1 AF units", "Inhibition, %": "17%", "antisecretory activity of pure phenols (in words)": "much smaller effect"}
{"compound": "O=c1c(O)c(-c2ccc(O)c(O)c2)oc2cc(O)cc(O)c12", "note": "[Quercetin]", "AF units": "0.8 ± 0.1 AF units", "Inhibition, %": "42%", "antisecretory activity of pure phenols (in words)": "significant antisecretory activity"}
{"compound": "COc1ccccc1O", "note": "[Guaiacol, 2-methoxyphenol]", "AF units": "0.9 ± 0.3 1.0 ± 0.2 1.5 ± 0.2 AF units", "Inhibition, %": "46 51 76%", "antisecretory activity of pure phenols (in words)": "induced antisecretory activity as early as day 1"}
{"compound": "Oc1cccc(O)c1", "note": "[Resorcinol]", "AF units": "0.6 ± 0.1 AF units", "Inhibition, %": "30%", "antisecretory activity of pure phenols (in words)": "much smaller effect"}
{"compound": "COc1cc(C(=O)O)ccc1O", "note": "[Vanillic acid]", "AF units": "1.1 ± 0.1 AF units", "Inhibition, %": "57%", "antisecretory activity of pure phenols (in words)": "significant antisecretory activity"}
{"compound": "COc1cc(/C=C/C(=O)O)ccc1O", "note": "[Ferulic acid]", "AF units": "1.2 ± 0.2 AF units", "Inhibition, %": "67%", "antisecretory activity of pure phenols (in words)": "significant antisecretory activity"}
{"compound": "Oc1cc2c(cc1O)CN(C(=S)NCCc1ccc(Cl)cc1)CCC2", "note": "[Capsazepine]", "AF units": "0.8 ± 0.1 1.3 ± 0.1 AF units", "Inhibition, %": "38 66%", "antisecretory activity of pure phenols (in words)": "as active as guaiacol"}
{"compound": "COc1ccccc1OC", "note": "[Veratrole]", "Inhibition, %": "21%", "antisecretory activity of pure phenols (in words)": "induced secretion"}
{"tested_on": "compleasomes (proteasome/complement complexes)", "assay": "Compleasome assay in blood (sandwich ELISA, mab against AF / polyclonal against C3c)", "type": "in vivo, Sprague-Dawley rats", "settings": "FIG. 10a; 5 μM phenol or leachate in drinking water for 14 days; reversed titre", "procedure": "(§1) In another set of experiments, the rats were given water extracts of the cereals or purified phenols in their drinking water. The malted Kosack wheat was milled to flour, of which 200 g was put in a glass flask and 800 ml boiling water was successively mixed with the flour. After 3 hours of slow cooling to room temperature, the soak-water was filtered through a nylon filter and centrifuged for 30 min at 12000×g. The supernatant was frozen in 50 ml portions and diluted 1:6 with water each day during the experiment. Freeze-dried purified fractions of wheat extracts were dissolved in the drinking water. […] The drinks or the water control were given in excess over 1-14 days before testing of antisecretory activity.\n(§2) Rats were given leachate from malted wheat or pure phenols in the drinking water as described above. After 14 days, blood samples were drawn as described elsewhere (Bjorck et al., 2000 and Lönnroth et al., 2016) and the antisecretory activity in blood was estimated by performing a sandwich enzyme-linked immunosorbent assay (ELISA) for detection of compleasomes (proteasome/complement complexes) in blood plasma as described elsewhere (Lonnroth et al., 2016). A monoclonal antibody (mab) against antisecretory factor was used as catching antibody and a polyclonal antibody against complement factor 3c as detecting antibody. The titre was determined after development by a secondary antibody coupled to alkaline phosphatas."}
{"compound": "COc1ccccc1O", "note": "[Guaiacol, 2-methoxyphenol]", "proteasome/C3 complex (AF activity in blood) compared to controls": "significantly higher"}
{"compound": "COc1cc(/C=C/C(=O)O)ccc1O", "note": "[Ferulic acid]", "proteasome/C3 complex (AF activity in blood) compared to controls": "significantly higher"}
{"tested_on": "compleasomes (proteasome/complement complexes)", "assay": "Compleasome assay in blood (sandwich ELISA, mab against AF / polyclonal against C3c)", "type": "in vivo, Sprague-Dawley rats", "settings": "FIG. 10b; in drinking water for 14 days, 5 animals/group", "procedure": "as §1, §2"}
{"compound": "COc1cc(/C=C/C(=O)O)cc(OC)c1O", "note": "[sinapic acid]", "compleasome concentration (AF activity in blood)": "significant increase"}
{"compound": "catechin", "compleasome concentration (AF activity in blood)": "significant increase"}
